According to patent US5110796A, “Prophylactic and therapeutic agents for cataracts” (priority 1988, dated 1992):
Where a name gives a salt, the structure may show the parent alone.

Key:
X-ray induced cataracts = tested on: X-ray induced cataracts
Protocol: Four-week old SLC Wistar rats are divided into three groups having ten animals in each group; the first group is a normal control group. The second group is an X-ray irradiated control group which is administered intraperitoneally 1 ml/kg of physiological saline solution three times a week after X-ray irradiation. For the third group, 20 mg/kg of glutathione monoisopropyl ester sulfate is administered intraperitoneally three times a week after X-ray irradiation. X-ray irradiation is carried out by irradiating the cephalic portion of conscious rats at 1,000 rad.
After X-ray irradiation, the lens are monitored every two weeks for opacity with a slit lamp. […] When the conditions of lens of the X-ray irradiated control group (the second group) reaches level IV or more (at 28 weeks), the tests are finished. Then the lens are extracted and measured for biochemical parameters [amounts of nonprotein-SH (Ellman's method), amounts of Na^+ /K^+ and Ca^++ (Atomic absorption method)].

mice = details: intraperitoneal injection to mice

CC(C)OC(=O)CNC(=O)[C@H](CS)NC(=O)CC[C@H](N)C(=O)O [glutathione monoisopropyl ester sulfate, isopropylγ-L-glutamyl-L-cysteinylglycinate]
share of the group with II grade lens score (seven grades I to VII, clear to opacitas) (X-ray induced cataracts; 20 mg/kg i.p. three times a week after 1,000 rad X-ray irradiation, 28 weeks, in the X-ray irradiated control the V grade is greater than 50%): greater than 50%
inhibiting action of cataracts (X-ray induced cataracts; 20 mg/kg i.p. three times a week after X-ray irradiation, rats): outstanding inhibiting action of cataracts
acute toxicity (LD50) (mice): approximately 5.3 g/kg
